According to US20140288025A1, “FATTY ACID ANTIVIRAL CONJUGATES AND THEIR USES” (Catabasis Pharmaceuticals, Inc., priority 2013, published 2014):
pEC50, pIC50: −log10 of the molar value. Where two headings read alike, the source gives them in different places.

Legend:
Assay type in all cases: cell-based
HBV = HBV assay, extracellular HBV DNA in HepG2 2.2.15 cells; conditions: Hepatitis B virus, read-out: EC90 against HBV
Protocol: Extracellular HBV DNA analysis was carried out using the protocols outlined in Innaimo et al, Antimicrobial Agents and Chemotherapy 1997, 41, p. 1444-1448 and Korba and Milman Antiviral Research 1991, 15, p. 217-228. HepG2 2.2.15 cells were maintained in RPMI 1640 supplemented with 2 mM L-glutamine, 50 U of penicillin per mL, 50 μg of streptomycin per mL, 500 μg of G418 per mL, and 5% fetal bovine serum. Stock solutions of the test compounds were prepared according to the procedures outlined in example 3. HepG2 2.2.15 cells were plated at a density of 5×10^5 cells per well on 12-well Biocoat collagen-coated plates (Collaborative Biosciences, Beford, Mass.) and were maintained in a confluent state for 2 to 3 days before being overlaid with 1 mL of medium spiked with the antiviral compound. Compound-containing medium was changed daily for 9 days. On day 10, the media were collected and clarified by pelleting the cellular debris with a 5-min microcentrifuge spin at 16,000×g. Supernatants were processed for HBV DNA by the alkaline lysis method. Released HBV DNA was immobilized on a Magnagraph nylon membrane (Micron Separatations, Inc., Westborough, Mass.) by sing a dot blot manifold full-length HBV genome template excised from plasmid pTHBV-1 (American Type Culture Collection, Rockville, Md.) and ^32P-radiolabeled to a specific activity of 2×10^9 cpm/μg by using a random primer kit (Life Technologies, Grand Island, N.Y.). Quantification was performed on a Storm 860 phosphorimager (Molecular Dynamics, Sunnyvale, Calif.). All drug concentrations were tested in duplicate or triplicate, with antiviral effects being scored as reductions in the amount of HBV DNA present in the medium relative to that in untreated controls after the 10-day treatment period. Using the assay, the following EC90 values against HBV were obtained: […]

NF-κB = NF-κB luciferase reporter assay in RAW 264.7 macrophages; conditions: for IC50: RAW264.7, 3 h, read-out: NF-kB inhibitory activity IC50 μM
Protocol: RAW 264.7 cells stably expressing a 3×NFkB response element-drive luciferase reporter were seeded into 96 well plates in sera-free medium (Optimem) 18 hours prior to compound application. Compounds of the invention were prepared by first making 100 mM stock solutions in EtOH. […] Cells were then stimulated with 200 ng/ml LPS or vehicle control for 3 hours in the presence of the compounds of the invention. A set of six vehicles was left unstimulated with LPS in order to measure the assay floor. AlamarBlue viability dye (Invitrogen) was added to cells simultaneously with the delivery of LPS (final AlamarBlue concentration of 10%). After the 3 h incubation period with LPS, cell viability was measured by reading fluorescence (excitation 550 nm, emission 595 nm) with a Perkin Elmer Victor V plate reader. Then cell media was aspirated from each well. Luciferase signal was then developed by addition of the Britelite Plus reagent (Perkin Elmer). Luciferase activity was measured with the Perkin Elmer Victor V plate reader. NE-κB activity was expressed as a percent of the vehicle control wells (stimulated with LPS). Compounds were tested at 6 dose point titrations in triplicate to determine IC50 values.

HIV-1IIIB strain = assay: HIV-1 cytoprotection assay (CEM-SS cells, MTS dye reduction); conditions: for IC50 HIV-1IIIB strain (nM): CEM-SS cells, 6 days, MTS
Protocol: Cytoprotection assays are commonly used for evaluating the antiviral efficacy of test compounds against a variety of viruses in different cell lines. […] Briefly, virus and cells are mixed in the presence of test compound and incubated for 6 days. […] Each assay plate contains cell control wells (cells only), virus control wells (cells plus virus), compound toxicity control wells (cells plus compound only), compound colorimetric control wells (compound only), as well as experimental wells (compound plus cells plus virus). Cytoprotection and compound cytotoxicity are assessed by MTS (CellTiter®96 Reagent, Promega, Madison Wis.) dye reduction. […] Each assay includes the HIV reverse transcriptase inhibitor AZT as a positive control.
CEM-SS cells were obtained from the NIH AIDS Research and Reference Reagent Program and are routinely passaged in T-75 flasks using standard tissue culture techniques based on the specifications provided by the supplier. On the day preceding the assay, the cells are split 1:2 to assure they are in an exponential growth phase at the time of infection. Total cell number and percent viability determinations are performed using a hemacytometer and trypan blue exclusion. […] The cells are re-suspended at 5×10^4 cells/mL in tissue culture medium and added to the drug-containing 96-well microtiter plates in a volume of 50 μl.
The viruses used for this assay are CXCR4-tropic laboratory virus strains. The most commonly used strains are HIV-1RF and HIV-1IIIB (each obtained from the NIH AIDS Research and Reference Reagent Program). For each assay, a pre-titered aliquot of virus is removed from the freezer (−80° C.) and allowed to thaw slowly to room temperature in a biological safety cabinet. The virus is re-suspended and diluted into tissue culture medium such that the amount of virus added to each well in a volume of 50 μl is the amount determined to give between 85 to 95% cell killing at 6 days post-infection.
Each plate contains cell control wells (cells only), virus control wells (cells plus virus), drug cytotoxicity wells (cells plus drug only), drug colorimetric control wells (drug only), background control wells (media only), as well as experimental wells (drug plus cells plus virus). Samples are evaluated for antiviral efficacy with triplicate measurements using 6 concentrations at half-log dilutions (12 concentrations can also be performed) in order to determine IC50 values and with duplicate measurements to determine cellular cytotoxicity, if detectable.
100% EtOH is added to the compounds of the invention such that the EtOH stock concentration is 50 mM. […] (VWR Ultrasonics Cleaner, Model #B8500A-DTH with “Sonics Power” set to HI); e) The 1:2 serial dilutions of the 1 mM 10× stock solution with FBS/2% EtOH are prepared such that the concentrations of the 10× stock solutions are 1 mM, 0.5 mM, 0.25 mM, etc., in FBS with 2% EtOH. Medium is aspirated off cells and replaced with serum free medium.

[1] = test system: HCV Con 1 subgenomic replicon; assay: HCV replicon assay (Huh-7 GS4.1 cells, NS4A ELISA); conditions: Hepatitis C virus, Huh-7 GS4.1 replicon cells, 72 hours
Protocol: The HCV replicon assay was carried out in the same manner described in WO 2010/018140, WO 2011/123586, Okuse et al Antivir. Res. 2005, 65, p. 23, Blight et al Science 2000, 290, p. 1972, Korba and Gerin Antivir. Res. 1992, 19, p. 55). Huh-7 cells containing HCV Con 1 subgenomic replicon (GS4.1 cells) were grown in Dulbecco's Modified Eagle Medium (DMEM) supplemented with 10% fetal bovine serum (FBS), 2 mM L-glutamine, 110 mg/L sodium pyruvate, 1× non-essential amino acids, 100 U/mL penicillin-streptomycin and 0.5 mg/mL G418 (Invitrogen). For dose-response testing, the cells were seeded in 96-well plates at 7.5×10^3 cells/well in a volume of […] and incubated at 37° C./5% CO2. […] The cells were incubated in the presence of compounds for 72 hours after which they are monitored for expression of the NS4A protein by enzyme-linked immunosorbent assay (ELISA). […] The reaction was stopped after 30 minutes with 2 N H2SO4 and the absorbance was read at 492 nm using a Sunrise Tecan spectrophotometer. EC50 values were determined from the % inhibition vs concentration data using a sigmoidal non-linear regression analysis based on four parameters with Tecan Magellan software. For cytotoxicity evaluation, GS4.1 cells are treated with compounds as described and cellular viability can be monitored using a Cell Titer 96 AQueous One Solution Cell Proliferation Assay (Promega). […]

| Compound | EC90 (HBV; HepG2 2.2.15, 240 h) | IC50 (NF-κB; Mus musculus) | further results |
| --- | --- | --- | --- |
| CC/C=C\C/C=C\C/C=C\C/C=C\C/C=C\C/C=C\CCC(=O)Nc1ccn([C@@H]2CS[C@H](CO)O2)c(=O)n1 [Example V-18, (4Z,7Z,10Z,13Z,16Z,19Z)—N-(1-((2R,5S)-2-(hydroxymethyl)-1,3-oxathiolan-5-yl)-2-oxo-1,2-dihydropyrimidin-4-yl)docosa-4,7,10,13,16,19-hexaenamide] |  |  | EC90 (HBV; 240 h, HepG2 2.2.15 cells, extracellular HBV DNA, 10-day treatment): 0.081 µM; pIC50 (NF-κB; Mus musculus, RAW264.7, RAW 264.7 reporter cells, 200 ng/ml LPS, 3 hours, read-out: NF-kB inhibitory activity IC50): < 3.70; IC50 HIV-1IIIB strain (nM) (HIV-1IIIB strain): + ++ |
| CC/C=C\C/C=C\C/C=C\C/C=C\C/C=C\C/C=C\CCC(=O)NCCNC(=O)OC[C@@H]1O[C@H](n2ccc(N)nc2=O)CS1 [Example V-21, ((2R,5S)-5-(4-amino-2-oxopyrimidin-1(2H)-yl)-1,3-oxathiolan-2-yl)methyl (2-((4Z,7Z,10Z,13Z,16Z,19Z)-docosa-4,7,10,13,16,19-hexaenamido)ethyl)carbamate] | 0.079 µM | 50 to 200 µM | IC50 HIV-1IIIB strain (nM) (HIV-1IIIB strain): + ++ |
| CC/C=C\C/C=C\C/C=C\C/C=C\C/C=C\C/C=C\CCC(=O)NCCNP(=O)(OC[C@H]1O[C@@H](n2ccc(=O)[nH]c2=O)[C@](C)(F)[C@@H]1O)Oc1ccccc1 (stereo partly drawn) [II-1, ((2R,3R,4R,5R)-5-(2,4-dioxo-3,4-dihydropyrimidin-1(2H)-yl)-4-fluoro-3-hydroxy-4-methyltetrahydrofuran-2-yl)methyl phenyl (2-((4Z,7Z,10Z,13Z,16Z,19Z)-docosa-4,7,10,13,16,19-hexaenamido)ethyl) phosphoramidate] |  |  | pEC50 [1]: 6.11 |
| C=C1[C@H](COP(=O)(NCCNC(=O)CC/C=C\C/C=C\C/C=C\C/C=C\C/C=C\C/C=C\CC)OC)[C@@H](O)C[C@@H]1n1cnc2c(=O)nc(N)[nH]c21 (stereo partly drawn) [II-46, ((1R,3S,5S)-3-(2-amino-6-oxo-3H-purin-9(6H)-yl)-5-hydroxy-2-methylenecyclopentyl)methyl methyl (2-((4Z,7Z,10Z,13Z,16Z,19Z)-docosa-4,7,10,13,16,19-hexaenamido)ethyl)phosphoramidate] | 0.007 µM |  |  |
| C=C1[C@H](COP(=O)(NCCNC(=O)CCC/C=C\C/C=C\C/C=C\C/C=C\C/C=C\CC)OC)[C@@H](O)C[C@@H]1n1cnc2c(=O)nc(N)[nH]c21 (stereo partly drawn) [II-48, ((1R,3S,5S)-3-(2-amino-6-oxo-3H-purin-9(6H)-yl)-5-hydroxy-2-methylenecyclopentyl)methyl methyl (2-((5Z,8Z,11Z,14Z,17Z)-icosa-5,8,11,14,17-pentaenamido)ethyl)phosphoramidate] | 0.007 µM | 50 to 200 µM |  |
| CC/C=C\C/C=C\C/C=C\C/C=C\C/C=C\C/C=C\CCC(=O)NCCNP(=O)(OC[C@@H]1O[C@H](n2ccc(N)nc2=O)CS1)Oc1ccccc1 (stereo partly drawn) [II-67, ((2R,5S)-5-(4-amino-2-oxopyrimidin-1(2H)-yl)-1,3-oxathiolan-2-yl)methyl phenyl (2-((4Z,7Z,10Z,13Z,16Z,19Z)-docosa-4,7,10,13,16,19-hexaenamido)ethyl)phosphoramidate] | 0.075 µM |  | NF-kB inhibitory activity IC50 μM (NF-κB; RAW 264.7 reporter cells, 200 ng/ml LPS, 3 hours): + +; IC50 (HIV-1IIIB strain; Human immunodeficiency virus 1, IIIB, CEM-SS, 144 h, read-out: IC50 HIV-1IIIB strain (nM)): < 100 nM |
| CC/C=C\C/C=C\C/C=C\C/C=C\C/C=C\CCCC(=O)NCCNP(=O)(OC[C@@H]1OC(n2ccc(N)nc2=O)CS1)Oc1ccccc1 (stereo partly drawn) [II-68] | 0.082 µM | 50 to 200 µM |  |
